Measurements: patent US9642806B2, “Antifungal compositions with improved bioavailability” (Janssen Pharmaceutica N.V., priority 1996, dated 2017)

Assays:
[1] = Solubility in aqueous media (USP definition); type: physicochemical; conditions: water; USP definition: more than 10,000 parts of solvent for 1 part of solute
Source text: The solvent referred to herein is water.

[2] = Thermal stability at melt-extrusion temperatures; type: physicochemical; conditions: temperatures up to 300° C.
Method: One of the most important parameters of melt extrusion is the temperature at which the melt-extruder is operating. […] At temperatures lower than 120° C., itraconazole will not dissolve completely in most water-soluble polymers and the extrudate will not have the required bioavailability. In addition, the process is difficult because of the high viscosity of the mixture. At temperatures of more than 300° C. the water-soluble polymer may decompose to an unacceptable level.

Structure (SMILES): CCC(C)n1ncn(-c2ccc(N3CCN(c4ccc(OCC5COC(Cn6cncn6)(c6ccc(Cl)cc6Cl)O5)cc4)CC3)cc2)c1=O (racemic) [itraconazole, (±)-cis-4-[4-[4-[4-[[2-(2,4-dichlorophenyl)-2-(1H-1,2,4-triazol-1-yl-methyl)-1,3-dioxolan-4-yl]methoxy]phenyl]-1-piperazinyl]phenyl]-2,4-dihydro-2-(1-methylpropyl)-3H-1,2,4-triazol-3-one]
- solubility in aqueous media [1]: practically insoluble
- thermal stability (decomposition) [2]: thermally very stable
